From PMC3053071 (Bioorganic & medicinal chemistry letters, 2011) come the findings set out here.

Each structure is given as a SMILES string.

This data set can be described thus: Cell toxicity. Type of data set: cell-based.

`C=C(C)[C@@H]1CC[C@]2(C(=O)O)CC[C@]3(C)[C@H](CC[C@@H]4[C@@]5(C)CC[C@H](OC(=O)CC(C)(C)C(=O)O)C(C)(C)[C@@H]5CC[C@]43C)[C@@H]12` [Bevirimat, 3-O-(3′,3′-dimethylsuccinyl)betulinic acid] gave an IC50 above 300 µM.

The term IC50 denotes the concentration needed to halve the response being measured. A higher IC50 goes with a need for much substance.
